pIC50: −log10 of the molar value. The source made the active and inactive calls. The rule behind the calls is not given here.
Tests used:
DU-145 [1] = test: Antiproliferative activity against human DU-145 cells incubated for 96 hrs by MTT assay; format: functional, cell-based; conditions: DU-145, 96 h
MCF7 = test: Antiproliferative activity against human MCF7 cells incubated for 96 hrs by MTT assay; format: functional, cell-based; conditions: MCF7, 96 h
Histone deacetylase 8 = Histone deacetylase 8 (Homo sapiens, UniProt Q9BY41); test: Inhibition of human HDAC8 incubated for 10 mins followed by fluorogenic substrate addition by fluorescence based analysis
[2] = biological target: Polyamine deacetylase HDAC10 (Homo sapiens, UniProt Q969S8); test: Inhibition of human HDAC10 incubated for 10 mins followed by fluorogenic substrate addition by fluorescence based analysis
Histone deacetylase 11 = Histone deacetylase 11 (Homo sapiens, UniProt Q96DB2); test: Inhibition of human HDAC11 incubated for 10 mins followed by fluorogenic substrate addition by fluorescence based analysis
DU-145 [3] = test: Downregulation of HDAC6 expression in human DU-145 cells at 0.8 uM incubated for 24 hrs by Western blot analysis; format: functional, cell-based
[4] = Volume of distribution in Sprague-Dawley rat at 2 mg/kg, iv measured upto 24 hrs by LC-MS/MS analysis; format: ADME, organism-based; conditions: in vivo
[5] = AUC (0 to infinity) in Sprague-Dawley rat at 10 mg/kg, po measured upto 24 hrs by LC-MS/MS analysis; format: ADME, organism-based; conditions: in vivo
[6] = Oral bioavailability in Sprague-Dawley rat at 10 mg/kg measured upto 24 hrs by LC-MS/MS analysis; format: ADME, organism-based; conditions: in vivo
[7] = Acute toxicity in Sprague-Dawley rat assessed as effect on spleen at 500 to 4500 mg/kg, po measured after 15 days; format: organism-based; conditions: in vivo, 360 h, dose 500-4500 mg/kg, time 15 day
[8] = Acute toxicity in Sprague-Dawley rat assessed as pathological lesions at 500 to 4500 mg/kg, po measured after 15 days by H and E staining based analysis; format: organism-based; conditions: in vivo, 360 h, dose 500-4500 mg/kg, time 15 day
[9] = Toxicity in Balb/c mouse assessed as effect on body weight at 100 to 200 mg/kg, po measured upto 40 days; format: organism-based; conditions: in vivo, 960 h, dose 100-200 mg/kg, time < 40 day
DU-145 [10] = test: Antitumor activity against human DU-145 cells xenografted in Balb/c nude mouse model assessed as tumor growth inhibition at 200 mg/kg, po administered once daily for 40 days in presence of docetaxel relative to control; format: functional; conditions: DU-145, 960 h, time 40 day, read-out: TGI

Chain of Polyamine deacetylase HDAC10 (Q969S8 whole entry): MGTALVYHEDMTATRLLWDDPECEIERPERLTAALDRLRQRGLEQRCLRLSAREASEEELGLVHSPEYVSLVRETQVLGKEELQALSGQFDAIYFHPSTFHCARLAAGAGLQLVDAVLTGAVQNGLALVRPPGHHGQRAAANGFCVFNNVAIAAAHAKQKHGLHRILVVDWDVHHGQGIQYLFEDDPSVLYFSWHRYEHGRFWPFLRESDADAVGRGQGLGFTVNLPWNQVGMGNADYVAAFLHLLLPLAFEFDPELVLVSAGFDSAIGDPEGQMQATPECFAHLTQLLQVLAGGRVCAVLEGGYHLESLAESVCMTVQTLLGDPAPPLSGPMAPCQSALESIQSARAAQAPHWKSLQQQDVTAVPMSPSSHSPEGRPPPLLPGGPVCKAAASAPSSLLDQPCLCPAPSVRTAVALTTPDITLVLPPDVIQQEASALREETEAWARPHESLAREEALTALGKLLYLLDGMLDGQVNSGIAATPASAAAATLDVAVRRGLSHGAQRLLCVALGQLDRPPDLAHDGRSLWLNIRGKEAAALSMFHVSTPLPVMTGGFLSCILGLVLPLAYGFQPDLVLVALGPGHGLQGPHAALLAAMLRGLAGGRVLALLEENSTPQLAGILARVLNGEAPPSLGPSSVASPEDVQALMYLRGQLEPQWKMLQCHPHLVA
Chain of Histone deacetylase 11 (Q96DB2 whole entry): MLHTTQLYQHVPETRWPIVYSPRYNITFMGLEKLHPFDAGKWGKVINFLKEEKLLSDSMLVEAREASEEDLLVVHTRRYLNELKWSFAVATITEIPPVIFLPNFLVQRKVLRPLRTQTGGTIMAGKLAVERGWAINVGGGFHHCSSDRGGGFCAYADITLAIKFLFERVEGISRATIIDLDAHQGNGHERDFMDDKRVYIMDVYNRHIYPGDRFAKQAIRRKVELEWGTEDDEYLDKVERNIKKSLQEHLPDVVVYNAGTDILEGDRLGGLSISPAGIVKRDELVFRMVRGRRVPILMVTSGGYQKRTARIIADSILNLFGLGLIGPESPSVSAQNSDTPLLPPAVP
Chain of Histone deacetylase 8 (Q9BY41 whole entry): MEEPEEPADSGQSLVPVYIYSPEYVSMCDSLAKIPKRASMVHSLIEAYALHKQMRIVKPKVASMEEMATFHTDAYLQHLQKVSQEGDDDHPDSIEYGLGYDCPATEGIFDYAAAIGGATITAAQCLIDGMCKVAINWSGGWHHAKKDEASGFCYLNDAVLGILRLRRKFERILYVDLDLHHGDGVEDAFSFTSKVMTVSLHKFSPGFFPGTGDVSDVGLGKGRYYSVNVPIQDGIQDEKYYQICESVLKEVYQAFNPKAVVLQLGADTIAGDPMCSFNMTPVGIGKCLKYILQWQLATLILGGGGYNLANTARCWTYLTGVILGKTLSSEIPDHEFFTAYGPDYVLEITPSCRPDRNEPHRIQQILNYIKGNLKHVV

Compound `COc1ccccc1/C=C1\CC(=O)N(CCCCCCC(=O)NO)C1=O` has a pIC50 (DU-145 [1]) of 6.80, a pIC50 (MCF7) of 6.46 and a pIC50 (Histone deacetylase 8) of 6.25. The pIC50 [2] was 7.14, the pIC50 (Histone deacetylase 11) was < 5.30 and the Activity (DU-145 [3]) was “Active”. It also gave a Vd [4] of 4.63 L/kg, an AUC(0-inf) [5] of 3800 ng·h/mL and a bioavailability [6] of 46.5%. The Activity [7] was “Non-Toxic”, the Activity [8] was “Non-Toxic” and the Activity [9] was “Non-Toxic”. The inhibition in vivo at 200 mg/kg (DU-145 [10]) was 81.3%.

Reference: ChEMBL document CHEMBL5512640, “Discovery of novel itaconimide-based derivatives as potent HDAC inhibitors for the efficient treatment of prostate cancer” (Eur J Med Chem, 2024)
